# Experimental data as given in doi:10.64898/2026.05.07.723658, “Substrate-dependent crosslinking by the cytochrome P450 from aminopyruvatide biosynthesis” (bioRxiv, 2026).
# Where a SMILES comes first, the peptide text is derived from it. The star is where a group is joined. For = O=C*
# Columns and labels:
# [1] = biological target: T1, angiotensin I-converting enzyme (ACE) (Oryctolagus cuniculus, UniProt P12822); experiment: biochemical; details: 15 min preincubation at room temperature; substrate Abz-FRK(Dnp)-P-OH; 37 °C
# T1 construct: purchased Sigma A6778
# T1 sequence (P12822 34-1310): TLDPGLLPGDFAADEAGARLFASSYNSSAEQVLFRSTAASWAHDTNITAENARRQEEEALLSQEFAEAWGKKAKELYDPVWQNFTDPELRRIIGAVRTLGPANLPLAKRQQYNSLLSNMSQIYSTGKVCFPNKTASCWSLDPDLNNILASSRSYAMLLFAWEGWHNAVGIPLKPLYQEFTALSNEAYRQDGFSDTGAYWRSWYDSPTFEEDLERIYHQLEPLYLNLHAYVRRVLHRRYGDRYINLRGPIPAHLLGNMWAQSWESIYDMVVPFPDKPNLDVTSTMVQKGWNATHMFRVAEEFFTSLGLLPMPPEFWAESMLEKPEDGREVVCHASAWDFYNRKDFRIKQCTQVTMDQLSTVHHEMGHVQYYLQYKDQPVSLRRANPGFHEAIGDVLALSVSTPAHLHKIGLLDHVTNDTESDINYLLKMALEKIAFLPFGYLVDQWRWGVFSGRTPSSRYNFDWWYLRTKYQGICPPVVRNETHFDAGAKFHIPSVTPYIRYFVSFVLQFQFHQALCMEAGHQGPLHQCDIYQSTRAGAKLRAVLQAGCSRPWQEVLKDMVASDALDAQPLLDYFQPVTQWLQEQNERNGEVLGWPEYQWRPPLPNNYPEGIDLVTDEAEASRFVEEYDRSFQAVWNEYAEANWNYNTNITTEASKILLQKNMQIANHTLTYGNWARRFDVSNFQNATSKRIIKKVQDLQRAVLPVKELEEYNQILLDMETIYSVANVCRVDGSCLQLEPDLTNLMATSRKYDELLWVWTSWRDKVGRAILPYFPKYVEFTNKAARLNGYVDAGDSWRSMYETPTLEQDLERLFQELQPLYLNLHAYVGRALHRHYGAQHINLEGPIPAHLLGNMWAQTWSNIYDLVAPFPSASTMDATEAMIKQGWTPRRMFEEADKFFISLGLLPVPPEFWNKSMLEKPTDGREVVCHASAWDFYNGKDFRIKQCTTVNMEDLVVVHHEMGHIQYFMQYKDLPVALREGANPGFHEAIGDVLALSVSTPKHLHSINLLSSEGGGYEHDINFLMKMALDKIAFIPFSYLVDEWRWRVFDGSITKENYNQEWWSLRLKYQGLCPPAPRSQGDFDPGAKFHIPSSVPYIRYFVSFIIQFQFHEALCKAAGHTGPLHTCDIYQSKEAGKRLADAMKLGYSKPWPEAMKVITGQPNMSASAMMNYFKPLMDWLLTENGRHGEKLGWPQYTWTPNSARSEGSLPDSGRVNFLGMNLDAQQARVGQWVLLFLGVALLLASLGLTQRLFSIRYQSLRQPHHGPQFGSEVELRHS
# chymotrypsin = biological target: T2, chymotrypsin (Bos taurus, UniProt P00766); assay type: biochemical
# T2 construct: purchased Promega V1061
# [2] = biological target: T3, main protease from SARS-CoV-2 virus (Mpro) (Severe acute respiratory syndrome coronavirus 2, UniProt P0DTD1); assay type: biochemical
# T3 construct: Cayman chemical) was used; purchased Cayman chemical 701960
# trypsin = biological target: T4, trypsin (Sus scrofa, UniProt P00761); assay type: biochemical
# T4 construct: purchased Promega V5111
# T4 sequence (P00761 9-231): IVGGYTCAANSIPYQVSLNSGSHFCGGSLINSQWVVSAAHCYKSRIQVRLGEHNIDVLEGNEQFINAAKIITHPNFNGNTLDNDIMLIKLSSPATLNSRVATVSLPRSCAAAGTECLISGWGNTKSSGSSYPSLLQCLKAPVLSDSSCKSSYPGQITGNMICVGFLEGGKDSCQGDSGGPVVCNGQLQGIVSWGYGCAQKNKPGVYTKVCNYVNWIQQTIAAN
Compound,conversion by ApyO (cytochrome P450 ApyO),also measured
"NCC(=O)N[C@H]1Cc2ccc(O)c(c2)Oc2ccc(cc2)C[C@@H](C(=O)N[C@@H](CC(=O)O)C(=O)O)NC(=O)[C@H](Cc2ccc(O)cc2)NC1=O (single isomer, unassigned) [L7Y isomer-2]",,IC50 [1]: 1.1 µM
"CSCC[C@H](NC=O)C(=O)N[C@@H](CCCNC(=N)N)C(=O)N[C@@H](CCSC)C(=O)NCC(=O)N[C@@H](CCC(=O)O)C(=O)NCC(=O)N[C@@H](Cc1ccc(O)cc1)C(=O)N[C@@H](CC(C)C)C(=O)N[C@@H](Cc1ccc(O)cc1)C(=O)N[C@@H](CC(=O)O)C(=O)O [ApyAct, MRMGEGYLYD] (For-MRMGEGYLYD-OH)",about 70%,
CSCC[C@H](NC=O)C(=O)N[C@@H](CCCNC(=N)N)C(=O)N[C@@H](CCSC)C(=O)NCC(=O)N[C@@H](CCC(=O)O)C(=O)NCC(=O)N[C@@H](Cc1ccc(O)cc1)C(=O)N[C@@H](Cc1ccccc1)C(=O)N[C@@H](Cc1ccc(O)cc1)C(=O)N[C@@H](CC(=O)O)C(=O)O [L7F] (For-MRMGEGYFYD-OH),~ 8%,
CSCC[C@H](NC=O)C(=O)N[C@@H](CCCNC(=N)N)C(=O)N[C@@H](CCSC)C(=O)NCC(=O)N[C@@H](CCC(=O)O)C(=O)NCC(=O)N[C@@H](Cc1ccc(O)cc1)C(=O)NCC(=O)N[C@@H](Cc1ccc(O)cc1)C(=O)N[C@@H](CC(=O)O)C(=O)O [L7G] (For-MRMGEGYGYD-OH),~ 1%,
CC[C@H](C)[C@H](NC(=O)[C@H](Cc1ccc(O)cc1)NC(=O)CNC(=O)[C@H](CCC(=O)O)NC(=O)CNC(=O)[C@H](CCSC)NC(=O)[C@H](CCCNC(=N)N)NC(=O)[C@H](CCSC)NC=O)C(=O)N[C@@H](Cc1ccc(O)cc1)C(=O)N[C@@H](CC(=O)O)C(=O)O [L7I] (For-MRMGEGYIYD-OH),~ 60%,
CSCC[C@H](NC=O)C(=O)N[C@@H](CCCNC(=N)N)C(=O)N[C@@H](CCSC)C(=O)NCC(=O)N[C@@H](CCC(=O)O)C(=O)NCC(=O)N[C@@H](Cc1ccc(O)cc1)C(=O)N[C@H](C(=O)N[C@@H](Cc1ccc(O)cc1)C(=O)N[C@@H](CC(=O)O)C(=O)O)[C@@H](C)O [L7T] (For-MRMGEGYTYD-OH),~ 3%,
CSCC[C@H](NC=O)C(=O)N[C@@H](CCCNC(=N)N)C(=O)N[C@@H](CCSC)C(=O)NCC(=O)N[C@@H](CCC(=O)O)C(=O)NCC(=O)N[C@@H](Cc1ccc(O)cc1)C(=O)N[C@H](C(=O)N[C@@H](Cc1ccc(O)cc1)C(=O)N[C@@H](CC(=O)O)C(=O)O)C(C)C [L7V] (For-MRMGEGYVYD-OH),~ 57%,
CSCC[C@H](NC=O)C(=O)N[C@@H](CCCNC(=N)N)C(=O)N[C@@H](CCSC)C(=O)NCC(=O)N[C@@H](CCC(=O)O)C(=O)NCC(=O)N[C@@H](Cc1ccc(O)cc1)C(=O)N[C@@H](Cc1c[nH]c2ccccc12)C(=O)N[C@@H](Cc1ccc(O)cc1)C(=O)N[C@@H](CC(=O)O)C(=O)O [L7W] (For-MRMGEGYWYD-OH),~ 39%,
CSCC[C@H](NC=O)C(=O)N[C@@H](CCCNC(=N)N)C(=O)N[C@@H](CCSC)C(=O)NCC(=O)N[C@@H](CCC(=O)O)C(=O)NCC(=O)N[C@@H](Cc1ccc(O)cc1)C(=O)N[C@@H](Cc1ccc(O)cc1)C(=O)N[C@@H](Cc1ccc(O)cc1)C(=O)N[C@@H](CC(=O)O)C(=O)O [L7Y] (For-MRMGEGYYYD-OH),near quantitative,
CSCC[C@H](NC=O)C(=O)N[C@@H](CCCCN)C(=O)N[C@@H](CCSC)C(=O)NCC(=O)N[C@@H](CCC(=O)O)C(=O)NCC(=O)N[C@@H](Cc1ccc(O)cc1)C(=O)N[C@@H](CC(C)C)C(=O)N[C@@H](Cc1ccc(O)cc1)C(=O)N[C@@H](CC(=O)O)C(=O)O [R1K] (For-MKMGEGYLYD-OH),~ 8%,
CC(C)C[C@@H]1NC(=O)[C@@H](NC(=O)CN)Cc2ccc(O)c(c2)-c2cc(ccc2O)C[C@@H](C(=O)N[C@@H](C)C(=O)C(=O)O)NC1=O [desmethylaminopyruvatide A],,inhibition of chymotrypsin (chymotrypsin): No inhibition; inhibition of Mpro [2]: No inhibition; inhibition of trypsin (trypsin): No inhibition
